Assay results as given in patent publication US20230256095A1, “DYES FOR USE IN A METHOD OF TREATMENT OF VITREOUS OPACITY-RELATED DISEASES” (UNIVERSITEIT GENT, priority 2020, published 2023).

What was measured:
[1] = target: T1, collagen fibers (Rattus norvegicus, UniProt P02454+P02466); assay: In vivo laser photo-ablation of intravitreally injected collagen fibers; parameters: species or system rabbit
T1 construct: host or cells: exogenous fibres injected into the vitreous of New Zealand White rabbits
T1 sequence (P02454 152-1207 limits assumed): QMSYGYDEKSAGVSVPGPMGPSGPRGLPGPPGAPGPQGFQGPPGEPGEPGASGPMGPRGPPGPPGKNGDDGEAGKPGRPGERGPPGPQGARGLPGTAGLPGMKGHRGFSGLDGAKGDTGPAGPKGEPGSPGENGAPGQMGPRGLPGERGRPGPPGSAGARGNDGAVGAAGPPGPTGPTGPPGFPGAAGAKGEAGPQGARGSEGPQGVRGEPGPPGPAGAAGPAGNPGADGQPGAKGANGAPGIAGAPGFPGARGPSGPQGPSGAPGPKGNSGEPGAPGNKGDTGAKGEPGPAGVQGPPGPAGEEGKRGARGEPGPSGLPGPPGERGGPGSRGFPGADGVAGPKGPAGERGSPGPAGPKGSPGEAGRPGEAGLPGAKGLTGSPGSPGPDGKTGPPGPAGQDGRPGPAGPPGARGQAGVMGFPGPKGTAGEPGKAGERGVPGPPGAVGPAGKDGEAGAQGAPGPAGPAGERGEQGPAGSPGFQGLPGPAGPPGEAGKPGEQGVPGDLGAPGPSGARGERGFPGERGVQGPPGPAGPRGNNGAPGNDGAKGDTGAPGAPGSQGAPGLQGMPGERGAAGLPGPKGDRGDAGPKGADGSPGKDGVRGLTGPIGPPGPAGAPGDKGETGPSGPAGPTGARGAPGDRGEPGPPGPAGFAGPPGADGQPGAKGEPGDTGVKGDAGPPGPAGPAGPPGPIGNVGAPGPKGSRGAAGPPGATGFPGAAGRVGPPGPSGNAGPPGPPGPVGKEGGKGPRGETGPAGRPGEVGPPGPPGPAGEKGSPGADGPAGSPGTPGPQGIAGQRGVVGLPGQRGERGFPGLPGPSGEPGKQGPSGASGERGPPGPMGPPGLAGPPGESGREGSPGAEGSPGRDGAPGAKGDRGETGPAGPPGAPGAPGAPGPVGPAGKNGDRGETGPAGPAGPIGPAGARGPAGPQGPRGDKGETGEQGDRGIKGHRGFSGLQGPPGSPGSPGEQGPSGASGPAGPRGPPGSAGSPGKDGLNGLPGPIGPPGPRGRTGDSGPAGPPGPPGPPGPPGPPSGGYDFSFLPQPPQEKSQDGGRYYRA
T1 sequence (P02466 86-1125 limits assumed): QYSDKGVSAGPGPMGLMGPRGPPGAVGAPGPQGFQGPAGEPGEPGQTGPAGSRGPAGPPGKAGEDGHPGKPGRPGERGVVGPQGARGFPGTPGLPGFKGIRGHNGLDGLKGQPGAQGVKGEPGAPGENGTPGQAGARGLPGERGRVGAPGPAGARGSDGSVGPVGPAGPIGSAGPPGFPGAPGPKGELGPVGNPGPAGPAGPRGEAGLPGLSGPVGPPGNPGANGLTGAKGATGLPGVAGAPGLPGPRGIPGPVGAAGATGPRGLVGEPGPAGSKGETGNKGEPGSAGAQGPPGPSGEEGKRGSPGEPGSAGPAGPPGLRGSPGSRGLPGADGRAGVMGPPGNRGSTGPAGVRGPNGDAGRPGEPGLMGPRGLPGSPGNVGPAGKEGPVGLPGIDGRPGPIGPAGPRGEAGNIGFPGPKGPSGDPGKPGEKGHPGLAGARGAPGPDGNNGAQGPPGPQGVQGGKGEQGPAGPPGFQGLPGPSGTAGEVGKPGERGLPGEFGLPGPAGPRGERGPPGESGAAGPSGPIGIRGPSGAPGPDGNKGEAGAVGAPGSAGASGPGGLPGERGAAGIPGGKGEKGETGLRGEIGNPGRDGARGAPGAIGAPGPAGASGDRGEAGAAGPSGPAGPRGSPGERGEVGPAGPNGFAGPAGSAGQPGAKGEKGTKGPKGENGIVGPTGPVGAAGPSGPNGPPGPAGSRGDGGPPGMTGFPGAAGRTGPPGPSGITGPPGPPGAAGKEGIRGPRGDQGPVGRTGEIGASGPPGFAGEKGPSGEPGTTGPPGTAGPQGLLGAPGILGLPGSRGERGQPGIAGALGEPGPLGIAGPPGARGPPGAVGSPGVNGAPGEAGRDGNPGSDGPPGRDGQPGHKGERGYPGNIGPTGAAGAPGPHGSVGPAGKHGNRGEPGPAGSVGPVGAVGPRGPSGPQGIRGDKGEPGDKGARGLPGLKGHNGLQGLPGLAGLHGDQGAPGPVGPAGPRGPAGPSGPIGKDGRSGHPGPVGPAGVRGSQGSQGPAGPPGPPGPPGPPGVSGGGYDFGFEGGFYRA
Excerpt: (§1) A total of 24 New Zealand White rabbits (age 3-6 months; weight 2.45-3.15 kg; both genders) were used. The rabbits were randomly divided into 7 groups: a control group A treated with laser only (n=3), group B received an intravitreal (IVIT) injection of ICG (n=9), group C received an IVIT injection of ICG labeled collagen fibers (n=3), group D was IVIT injected with collagen fibers followed by an IVIT injection of ICG (n=3), group E was IVIT injected with HA-AuNPs labeled floaters (n=3), and group F was IVIT injected with floaters followed by an IVIT injection of HA-AuNPs (n=3). During the in vivo experiments, animal conditions such as mucous membrane color, heart rate, body heat, and respiratory rate were monitored every 15 minutes. The animals were anesthetized by intramuscular injection of ketamine (40 mg/kg) and xylazine (5 mg/kg). A drop of tropicamide (1%) and phenylephrine hydrochloride (2.5%) was applied into the rabbit eyes to dilate their pupils at 15 min before the imaging procedures. For topical anaesthesia, a drop of topical tetracaine (0.5%) was used. To avoid corneal dehydration during the experiment, a lubricant solution (Systane, Alcon Inc., TX, USA) was added into the eye every minute using a syringe with plastic needle. To maintain the anaesthesia, a dose of ketamine (13 mg/kg) was injected every 45 min. The animal's body heat was maintained using a circulation heat blanket.
First, to visualize the retina of the rabbit eyes, a plastic contact lens was placed on the cornea. When the target location in the vitreous was selected under the microscope, the rabbits under anaesthesia were subsequently intravitreally injected. The intravitreal injections were performed using a 27 gauge needle. […] The position of the fibers was monitored by OCT so that the intravitreal injection of ICG could be performed close the area where the fibers were located. […]
Before laser treatment, the rabbit's eyes were imaged by PAM and OCT (see section above). […] Also, rabbit's vital signs were monitored and recorded until the animals fully recovered from anaesthesia.

[2] = target: T1, collagen fibers; assay: In vivo binding of intravitreally injected ICG to collagen fibers (PAM/OCT/fundus imaging); parameters: species or system rabbit
Excerpt: A total of 24 New Zealand White rabbits (age 3-6 months; weight 2.45-3.15 kg; both genders) were used. The rabbits were randomly divided into 7 groups: a control group A treated with laser only (n=3), group B received an intravitreal (IVIT) injection of ICG (n=9), group C received an IVIT injection of ICG labeled collagen fibers (n=3), group D was IVIT injected with collagen fibers followed by an IVIT injection of ICG (n=3), group E was IVIT injected with HA-AuNPs labeled floaters (n=3), and group F was IVIT injected with floaters followed by an IVIT injection of HA-AuNPs (n=3). During the in vivo experiments, animal conditions such as mucous membrane color, heart rate, body heat, and respiratory rate were monitored every 15 minutes. […]
First, to visualize the retina of the rabbit eyes, a plastic contact lens was placed on the cornea. […] The position of the fibers was monitored by OCT so that the intravitreal injection of ICG could be performed close the area where the fibers were located. […]
The rabbits were monitored one minute after intravitreal injection of the collagen fibers and at day 4 post intravitreal injection of ICG. […] The rabbit eyes were assessed by color fundus photography, fluorescence imaging, optical coherence tomography (OCT) and photoacoustic microscopy (PAM), as discussed below. […]

[3] = target: T2, type I collagen fibers (Rattus norvegicus, UniProt P02454+P02466); assay: Photo-ablation of artificial floaters with nanosecond laser
T2 construct: type I collagen from the rat tail; purchased GIBCO; host or cells: rat tail (tissue-derived)
T2 sequence (P02454 152-1207 limits assumed): as the sequence (P02454 152-1207 limits assumed) above
T2 sequence (P02466 86-1125 limits assumed): as the sequence (P02466 86-1125 limits assumed) above
Description: Collagen fibers were prepared from type I collagen from the rat tail (GIBCO; concentration of 3 mg/ml) as described in Sauvage et al., 2019, ACS Nano, 13, 8401-8416. 5 ml of PBS was pipetted in a 15 ml falcon tube. 330 μL of the PBS solution was replaced by 330 μL collagen type I and the solution was vortexed. Sodium hydroxide (0.1 M) (VWR, Radnor, USA) was added to the acid solution of collagen to adjust pH to 7.4. The solution was vortexed again and placed for one hour in the incubator at 37° C. The final concentration of the collagen was 0.2 mg/ml.
First, dark-field microscopy imaging was performed to locate and align the nanosecond laser (Opolette HE 355 LD, OPOTEK Inc., CA, USA) on the artificial collagen fibers in the sample. Samples of either artificial or human opacities treated with TB, ICG and ICG nanoparticles were then illuminated with the laser (<7 ns). The wavelength of the laser light was 561 nm and the energy was set at ±800 μJ. A beam expander (#GBE05-A, Thorlabs) combined with iris diaphragm (#D37SZ, Thorlabs) were used to adjust the diameter of the laser beam to 150 μm (so that 800 μJ corresponded to a laser fluence of 4.5 J/cm^2). The laser pulse energy was monitored by an energy meter (J-25 MB-HE&LE, Energy Max-USB/RS sensors, Coherent) synchronized with the pulsed-laser. The set-up was made in such way to illuminate the sample shot by shot. Videos of the sample were made during illumination with NIS software. Same experiments were performed with human opacities Comparison Between Free ICG, PAH-ICG NPs and HSA-ICG NPs in Water and Bovine Vitreous.

[4] = tested on: human vitreous opacities; assay: Photo-ablation of human vitreous opacities obtained after vitrectomy; conditions: 0.5 mg/ml
[5] = In vivo clearance of intravitreally injected ICG from the vitreous (fundus imaging); parameters: species or system rabbit
Excerpt: as §1
First, to visualize the retina of the rabbit eyes, a plastic contact lens was placed on the cornea. When the target location in the vitreous was selected under the microscope, the rabbits under anaesthesia were subsequently intravitreally injected. The intravitreal injections were performed using a 27 gauge needle. In one series of experiments 40 μL of ICG-fibers (which are collagen fibers treated with ICG) was injected; the concentration of collagen in the dispersions was 0.02 mg/mL. In another series of experiments, 40 μL of collagen fibers (0.02 mg/mL) were intravitreally injected. 5 days after the injection of the fibers, ICG (0.25-1.25 mg/ml) was injected in the vitreous (40 μl). The position of the fibers was monitored by OCT so that the intravitreal injection of ICG could be performed close the area where the fibers were located. Three days after the injection of ICG, laser treatment was performed.
The rabbits were monitored one minute after intravitreal injection of the collagen fibers and at day 4 post intravitreal injection of ICG. Rabbits intravitreally injected with ICG only were followed up for 14 days post injection. The rabbit eyes were assessed by color fundus photography, fluorescence imaging, optical coherence tomography (OCT) and photoacoustic microscopy (PAM), as discussed below. The rabbit's head and body were positioned in two different platforms to minimize breathing and other motion artifacts. The same scanning areas for PAM- and OCT-imaging were monitored by the fundus camera which was integrated in the OCT system. To detect the photoacoustic signal, the ultrasound transducer was placed in contact with the conjunctiva, allowing it to move freely in 3D while not applying any physical pressure on the rabbit eyes. […]
Color fundus photography was performed using a 50-degree color fundus photography system (Topcon 50EX, Topcon Corporation, Tokyo, Japan). […] Fluorescence imaging was done with the Topcon 50EX system using appropriate excitation and emission filters.

[6] = tested on: immortalized human Müller cells (MIO-M1); assay: MTT toxicity assay on Müller cells; format: cell-based
Description: MIO-M1 cells were cultured in DMEM Glutamax medium (Thermo Fisher Scientific, Waltham, USA). The medium contained 10% foetal bovine serum (FBS) (Thermo Fisher Scientific, Waltham, USA), 100 IU/ml penicillin (Gibco®-Invitrogen life technologies, Walthan, USA), 100 μg/ml streptomycin (Gibco®-Invitrogen life technologies, Walthan, USA) and 2 mM L-Glutamin (Gibco®-Invitrogen life technologies, Walthan, USA). Before use, the medium was passed through a 0.2 μm PES membrane vacuum filter (VWR, Radnor, USA). The cells were plated in polystyrene cell culture flasks (surface=75 cm^2) (VWR, Radnor, USA) and placed in the incubator (37° C., 5% CO2) (Thermo Fisher Scientific, Waltham, USA) until confluence was reached (i.e. the cells forming a monolayer covering 80%-90% of the culture flask). The morphology was checked by microscopy (VWR, Radnor, USA). After reaching the confluence (more or less after 5 days) and checking the morphology, cells were split in new culture flasks. […]
To test the toxicity of free and nano-encapsulated ICG, we wanted to seed 7,000 Müller cells in each well of a 96-well plate (VWR, Radnor, USA). The cells were counted with a Bürker counting chamber (BRAND, Wertheim, Germany) to obtain the proper number of cells. […] The non-coloured cells were counted in 6 big squares (3 on each side of the chamber); each big square contained 0.1 μL mixture. […]

[7] = In vivo safety evaluation of treated eyes; parameters: species or system rabbit
Excerpt: Before laser treatment, the rabbit's eyes were imaged by PAM and OCT (see section above). For laser treatment, anesthetized rabbits were kept on a custom-built stabilization platform. After acquiring the images and locating the opacities (collagen fibers) by OCT, areas in the eyes (4.5×4.5 mm^2) were illuminated with laser pulses (<7 ns; 1.9 J/cm^2) NT-242, Ekspla, Lithuania) of 800 nm (ICG) to destroy the collagen fibers; the step size of the scanning laser was 9 μm, the beam size equaled 20 μm. During the treatment, real-time OCT was active to monitor the position of the collagen fibers. The 4.5×4.5 mm^2 area was laser scanned several times (3-7 times) until the collagen fibers were completely destroyed. After the laser treatment, PAM and fundus images were performed to evaluate the potential damage of retinal vessels. Also, rabbit's vital signs were monitored and recorded until the animals fully recovered from anaesthesia.
Treated eyes were ophthalmologically evaluated immediately after the laser treatment and followed up for 1 month. Anterior segment structures such as the eyelids, iris, conjunctiva, cornea, anterior chamber and lens were comprehensively examined using slit lamp bio-microscopy (SL120, Carl Zeiss, Germany). In addition, posterior segment structures (i.e., the vitreous, optic nerve and retina) were assessed using a contact fundus lens (Volk Optical Inc, Mentor, Ohio, USA).

[8] = eyes treated with laser with ICG

With CC1(C)C(/C=C/C=C/C=C/C=C2\N(CCCCS(=O)(=O)O)c3ccc4ccccc4c3C2(C)C)=[N+](CCCCS(=O)(=O)[O-])c2ccc3ccccc3c21 [ICG, Indocyanine Green] the “destruction of collagen fibers in vivo” value ([1]; IVIT 0.625 mg/mL, 800 nm, 1.9 J/cm^2) was “complete destruction of the collagen fibers”, the “laser pulses (scans) sufficient to completely destroy injected collagen fibers” value ([1]; IVIT 1.25 mg/mL, 800 nm, 1.9 J/cm^2, 3 days after ICG) was 5 laser pulses and the “pulses sufficient to destroy the IVIT injected fibers” value ([1]; all rabbits tested (n=3)) was 3.3+/−1.5 pulses. The “reaching and binding of collagen fibers in vivo” value ([2]; IVIT 1.25 mg/mL, 5 days after fiber injection) was “could reach and bind the collagen fibers”, the “lowest concentration at which binding to collagen fibers was still observed in vivo” value ([2]; intravitreal injection) was 0.625 mg/mL and the “binding and destruction of type I collagen fibers” value ([3]; 0.5 mg/ml) was “can bind and efficiently destroy type I collagen fibers”. For the same molecule, the “location of VNBs during laser pulse on fiber” value ([3]; nanosecond laser 4.5 J/cm^2) was “VNBs could be observed at the level of the fiber”, the “destruction of human vitreous opacity” value ([4]; 561 nm, 4.5 J/cm^2) was “the vitreous opacity could be destroyed” and the “destruction of human vitreous opacity” value ([4]; 800 nm, 1.1 J/cm^2) was “the vitreous opacity could be destroyed”. The “visibility of ICG 7 days after injection” value ([5]; 0.25 mg/ml IVIT) was “no longer visible at the level of the collagen fibers”, the “visibility of ICG 7 days after injection” value ([5]; 0.625 mg/ml IVIT) was “remained only visible at the level of the collagen fibers” and the “visibility of ICG 7 days after injection” value ([5]; 1.25 mg/ml IVIT) was “remained only visible at the level of the collagen fibers”. The “visibility of 'free' ICG (not bound to collagen) in vitreous cavity” value ([5]; 3 days post injection, all concentrations) was “no longer visible in the vitreous cavity”, the “visibility of injected ICG in vitreous” value ([5]; after one day, 0.25, 0.625 and 1.25 mg/ml IVIT) was “most of the injected ICG was no longer visible” and the “toxicity on immortalized human retinal cells (MIO-M1)” value ([6]; 0.5 mg/ml) was “no clear toxicity”. For the same molecule, the “toxicity / metabolic activity (MTT)” value ([6]; 24 hours, 0.1-1 mg/ml) was “rather acceptable toxicity up to a concentration of 0.5 mg/ml”, the “anterior segment 30 days post treatment” value ([7]; 30 days post treatment) was “normal corneas, eyelids, anterior chamber, conjunctiva and transparent lenses” and the “anterior segment, visual inspection” value [7, 8] was “normal corneas, eyelids, anterior chamber, conjunctiva, and transparent lens”. The “posterior segment, color fundus imaging” value [7, 8] was “no significant changes or injuries in the posterior segment structure” and the “retinal layers, B-scan OCT” value ([7]; post laser treatment) was “did not indicate structural disorganization in the retinal layers”.
In the case of Cc1cc(-c2ccc(/N=N/c3c(S(=O)(=O)O)cc4cc(S(=O)(=O)O)cc(N)c4c3O)c(C)c2)ccc1/N=N/c1c(S(=O)(=O)O)cc2cc(S(=O)(=O)O)cc(N)c2c1O [free TB, Trypan Blue], the “binding and destruction of type I collagen fibers” value ([3]; 0.1 mg/ml as printed) is reported as “can bind and efficiently destroy type I collagen fibers”.
